This note sets out measurements from patent US9486447B2, “Compositions and methods for controlling neuronal excitation” (The General Hospital Corporation, priority 2011, dated 2016).

The assay has as its target T1, H2 (Homo sapiens, UniProt P25021).
T1 construct: NIMH PDSP
In words: NIMH PDSP binding assay. To be noted: primary screening, mean of N = 4 determinations. An excerpt: To determine if optovin's mechanism of action could be predicted via behavioral profiling^30,32, optovin's behavioral profile was compared to the behavioral profiles of 700 annotated neuroactive compounds tested in triplicate. These compounds include ligands targeting the adrenergic, serotonergic, histaminergic, dopaminergic, cholinergic and glutamatergic pathways. […] To gain insight into optovin's mechanism of action, optovin and two active optovin analogs were profiled using the National Institutes of Mental Health Psychoactive Drug Screening Program (NIMH PDSP) to determine their activities against a panel of human and rodent CNS receptors, channels and transporters.
Activity determinations were generously provided by the National Institute of Mental Health's Psychoactive Drug Screening Program, Contract # HHSN-271-2008-00025-C(NIMH PDSP). Complete assay details are found on-line at: http://pdsp.med.unc.edu/UNC-CH %20Protocol %20Book.pdf

T1 sequence (P25021 whole entry): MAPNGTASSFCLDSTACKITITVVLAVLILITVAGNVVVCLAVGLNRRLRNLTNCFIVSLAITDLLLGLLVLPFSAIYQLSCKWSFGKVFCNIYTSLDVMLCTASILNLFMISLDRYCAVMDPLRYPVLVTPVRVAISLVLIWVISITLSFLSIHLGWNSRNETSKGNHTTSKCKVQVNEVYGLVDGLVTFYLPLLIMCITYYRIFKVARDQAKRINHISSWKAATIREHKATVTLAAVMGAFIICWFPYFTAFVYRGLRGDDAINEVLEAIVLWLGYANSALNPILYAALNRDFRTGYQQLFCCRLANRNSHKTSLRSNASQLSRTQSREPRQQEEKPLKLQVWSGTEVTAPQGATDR

Turning to `Cc1cc(/C=C2/SC(=S)NC2=O)c(C)n1-c1cccnc1` [optovin], the “Avg % inhibition (H2)” value is 41.1%.
